A word on the AUC: it is concentration integrated over time. Low readings indicate low exposure, high ones high exposure. A word on the bioavailability: it is the share of a dose that reaches the circulation, judged against a reference dose that is usually intravenous. Higher therefore signals much systemic uptake.

This data set is described as follows: concentration in blood of tulobuterol upon administering to a rat, compared with oral administration. The note with it: oral 10 mg/kg. Type of data set: in vivo.

Structures are written as SMILES.

In turn, `CC(C)(C)NCC(O)c1ccccc1Cl` (centres unmarked) [tulobuterol] gave an AUC (blood) of 91000 ng·h/mL. The bioavailability (blood) came out at 5.37%. For the same compound, the “concentration in blood of tulobuterol” value reads like this: (0.25 hr) 227.0; (0.5 hr) 37.7; (1 hr) 17.1; (2 hr) 4.3; (4 hr) 0.8; (6 hr) 0 µg/mL. Besides, the concentration in blood of tulobuterol (8 hr) is 0 µg/mL, the concentration in blood of tulobuterol (12 hr) was found to be 0 µg/mL and the concentration in blood of tulobuterol (24 hr) came out at 0 µg/mL.
